From patent US12264142B2, “Heterocyclic compounds” (FLORATEK PHARMA SA, priority 2019, dated 2025)

Experiments:
C. elegans = test: Life span assay on Automated Lifespan Machine (SND302, SND303); type: in vivo; conditions: for Mean lifespan: area under the survival curve; for Age in days at 25% mortality / Age in days at 50% mortality / Age in days at 75% mortality / Age in days at 90% mortality / Age in days at 100% mortality: SND302, SND303 25 μM, Uro A, Resveratrol 50 μM; for Effect on lifespan: in words, compared to control
Protocol: An additional life span assay using an adapted standard protocol employed and published by the C. elegans Intervention Testing Program, or CITP was employed to assess the activity of SND302 and SND303. A positive and a negative control were included in the assay. In a preliminary experiment the optimal conditions for the life span analysis was determined and the stress level induced by the compounds as well as toxicity were measured.
For the life span assay over 300 worms per conditions were used and the study was conducted by InVivoBiosystems (USA) using an Automated Lifespan Machine (ALM) with proprietary modifications to improve temperature stability and image acquisition.
To prevent chemical modification or metabolism of the test article by the food bacteria, worms were fed on a lawn of UV-killed bacteria (UV-i bacteria). An overnight culture of E. coli strain WP-2 was pelleted, washed, filtered, and irradiated. A suspension of UV-i bacteria was spotted on NGM agar containing Streptomycin to inhibit growth of contaminating bacteria. The quantity and distribution of food bacteria was calibrated to ensure adequate access to food for the duration of assay while maintaining visibility of the worms.
Test article was delivered to worms by a method compatible with and previously validated on the Automated Lifespan Machine and used by the CIT [Lucanic, et. al. Impact of genetic background and experimental reproducibility on identifying chemical compounds with robust longevity effects. Nature Communications 8 (2017)]. A 200× stock solution was freshly prepared in DMSO immediately before application. 40 μl of DMSO stock (0.5% plate volume) was applied to the plate to coat the food bacteria and then chased immediately with 160 μl water to uniformly distribute a fine precipitate across the surface of the plate. This functioned to provide reservoirs of compound in food, agar, and agar surface.
The ALM used by InVivoBiosystems is based on the Caenorhabditis elegans lifespan machine published by Stroustrup, N. et al. The Caenorhabditis elegans Lifespan Machine. N at Methods 10, 665-670 (2013), with proprietary modifications to improve temperature stability and image acquisition. The scanner unit consists of a modified EPSON V850 and images are processed and analyzed using the ALM software 7. The machine time-of-death calls are trained and validated using the “storyboarding” feature of the ALM software.
The lifespan assay was designed and performed according to published and validated methods, Amrit, F. R. G., Ratnappan, R., Keith, S. A. & Ghazi, A. The C. elegans lifespan assay toolkit. Methods 68, 465-475 (2014); Lucanic, et. al. Manual Lifespan Assay Standard Operating Procedure. Caenorhabditis Intervention Testing Program https://figshare.com/articles/7_CITP_SOP_Manual_Lifespan_Assay/9738197/1. using a modified version of the Automated Lifespan Machine. Worms were age synchronized by bleaching and eggs were plated directly onto NGM agar seeded with UV-I bacteria (Day 1, hatch). On Day 3, when the worms had reached the late L4 stage, they were transferred to dishes containing 100 μM 5-Fluorodeoxyuridine (FUdR) to suppress progeny. On day 5, the worms were washed off the dishes and 30-50 worms were plated on each scanner dish. Plates were immobilized inverted on the bed of an Automated Lifespan Machine which scanned two images per hour of the plates continuously for the next 40 days.
Time of death calls exported from the ALM software were analyzed and plotted using the Lifelines software package developed by Davidson-Pilon, (2019). lifelines: survival analysis in Python. Journal of Open Source Software, 4(40), 1317.

[1] = system: C. elegans gene expression; test: Whole transcriptome analysis (RNA-Seq) of treated worms; type: in vivo
Protocol: To determine the mode of action for SND302 and SND303 the gene transcription in young and aged adults was analyzed by RNA-Seq (whole transcription analysis). For each condition, >300 worms were treated in parallel with the lifespan assay and maintained under identical conditions.
Differential gene expression was performed with EdgeR using […] likelihood ratio tests based on fitting linear models. The likelihood ratios were used to determine the p-values which were subsequently corrected for using the BH false discovery rate (fdr) method. Eventually, differential expressed genes were defined as genes with fdr-corrected p-value of 0.05 or lower, as well as a change in expression of at least 2-fold in a given between-group comparison. Compounds SND302 and SND303 were compared against Urolithin and Vehicle control. […] In general the transcriptomic data corroborates a differential effect for SND303 when compared to SND302 (FIGS. 1-4).
Worms for RNA-Seq were split from the same synchronized pool of worms for the lifespan with each of the three replicates being maintained and treated in parallel. More than 150 worms per replicate were harvested, cleaned by filtration, and frozen at −80° in Trizol. To extract RNA, samples were thawed, vigorously vortexed, and processed using the Direct-zol RNA Miniprep Kit (Zymo Research). All samples exceeded our threshold for RNA quantity and quality. RNA samples were submitted to Novogene Co. Ltd and subjected to more stringent QC, being tested on a Qubit for concentration and run on an agarose gel and on the Agilent […] assess RNA quality and integrity. […] The total RNA was then enriched for poly-mRNA using oligo(dT) paramagnetic beads. DNA libraries were then constructed from this input mRNA using the NEBNext Ultra™ II RNA Library Prep Kit.
These libraries were then further tested by the Qubit for concentration and the Agilent 2100 for library size distribution and quality. In order to properly pool the libraries and load them onto sequencing lanes to ensure the correct number of reads per sample, an even more precise quantification of the library was done via qPCR, and the samples were loaded onto the NovaSeq 6000 platform for a paired-end sequencing run of 150 bp for each end (PE150). The loading concentrations were designed to obtain at least 6.0 Gb (which is the number of billion bases of raw data, determined by the number of reads multiplied by the length of each read). A mean of 7.4 Gb (median 7.3 Gb) raw sequencing data was obtained across all samples, with a minimum of 6.3 Gb and a maximum of 8.5 Gb raw data. Sequencing run data quality control was performed both by Novogene and by an in-house analysis. The raw data set was analyzed for parameters such as the distribution of base quality along the length of the sequencing read, the distribution of error rate along the length of the sequencing read. Reads containing adapter sequences, with N>10% (where N means “base cannot be determined”) and with a low quality (Qscore<=5) for 50% or more of its total bases were removed.

Compound	Median lifespan (C. elegans; 25 μM)	Mean lifespan (C. elegans; 25 μM)	Age in days at 25% mortality (C. elegans)	Age in days at 50% mortality (C. elegans)	Age in days at 75% mortality (C. elegans)	Age in days at 90% mortality (C. elegans)	Age in days at 100% mortality (C. elegans)	Effect on lifespan (C. elegans)	Significant differentially-expressed genes ([1]; Day 3, compared to the controls (Vehicle and Urolithin A), 25 μM)	Expression of gene C50F7.5 ([1]; Day 10)	Most significant differentially-expressed genes ([1]; Day 10, compared to vehicle)	Significant differentially-expressed genes ([1]; Day 10, compared with the UroA control)	Median lifespan (C. elegans; 50 μM)	Mean lifespan (C. elegans; 50 μM)	Differentially-expressed genes ([1]; Urolithin A compared with the vehicle control)
CC(C)NC(=O)Oc1ccc2c(c1)oc(=O)c1cc(OC(=O)NC(C)C)ccc12 [SND303]	29.0 days	27.6 days	25 days	29.0 days	31.8 days	33.9 days	39.9 days	clear and statistically significant lifespan extension	2-3 genes	significantly upregulated	7 genes	3 genes	–	–	–
O=c1oc2cc(O)ccc2c2ccc(O)cc12 [Urolithin A, reference compound]	–	–	23.8 days	27.8 days	30.2 days	32.3 days	37.7 days	did not produce a significant change in lifespan	–	–	–	–	27.8 days	27.0 days	no differentially-expressed genes
